Legend:
[1] = test system: cocklebur; experiment: Test B pre/postemergence cocklebur; assay type: in vivo, Xanthium strumarium
Summary of the method: (§1)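 Herbicidal effect was estimated by eye on a ten-point control scale after plants spent twelve to sixteen days in a greenhouse following soil or foliar treatment. Foliar sprays targeted plants at one to four leaves; all doses were formulated in a non-phytotoxic solvent with surfactant.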

[2] = test system: giant foxtail; experiment: Test B pre/postemergence giant foxtail; assay type: in vivo, Setaria faberii
Summary of the method: as §1

[3] = test system: corn; experiment: Test B pre/postemergence corn; assay type: in vivo, Zea mays
Summary of the method: as §1

[4] = test system: bedstraw; experiment: Test B pre/postemergence bedstraw; assay type: in vivo, Galium aparine
Summary of the method: as §1

[5] = test system: duck salad; experiment: Test B flood test duck salad; assay type: in vivo, Heteranthera limosa
Summary of the method: (§2)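 Flood test on plants grown to the 2-leaf stage; treated plants kept in greenhouse twelve to sixteen days, then visually rated against controls on a 0 (no effect) to 10 (complete control) scale.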

[6] = test system: rape; experiment: Test B pre/postemergence rape; assay type: in vivo, Brassica napus
Summary of the method: as §1

[7] = test system: crabgrass; experiment: Test B pre/postemergence crabgrass; assay type: in vivo, Digitaria sanguinalis
Summary of the method: as §1

[8] = test system: velvetleaf; experiment: Test B pre/postemergence velvetleaf; assay type: in vivo, Abutilon theophrasti
Summary of the method: as §1

[9] = test system: wild oat; experiment: Test B pre/postemergence wild oat; assay type: in vivo, Avena fatua
Summary of the method: as §1

[10] = test system: wheat; experiment: Test B pre/postemergence wheat; assay type: in vivo, Triticum aestivum
Summary of the method: as §1

[11] = test system: surinam grass; experiment: Test B pre/postemergence surinam grass; assay type: in vivo, Brachiaria decumbens
Summary of the method: as §1

[12] = test system: soybean; experiment: Test B pre/postemergence soybean; assay type: in vivo, Glycine max
Summary of the method: as §1

[13] = test system: bamyardgrass; experiment: Test B flood test barnyardgrass; assay type: in vivo, Echinochloa crus-galli
Summary of the method: as §2

[14] = test system: morningglory; experiment: Test B pre/postemergence morningglory; assay type: in vivo, Ipomoea hederacea
Summary of the method: as §1

[15] = test system: smallflower flatsedge; experiment: Test B flood test smallflower flatsedge; assay type: in vivo, Cyperus difformis
Summary of the method: as §2

[16] = test system: blackgrass; experiment: Test B pre/postemergence blackgrass; assay type: in vivo, Alopecurus myosuroides
Summary of the method: as §1

[17] = Preemergence, Rate 62 g/ha, scale of 0 to 10 where 0 is no effect and 10 is complete control
[18] = Preemergence, Rate 250 g/ha, scale of 0 to 10 where 0 is no effect and 10 is complete control
[19] = Preemergence, Rate 500 g/ha, scale of 0 to 10 where 0 is no effect and 10 is complete control
[20] = Rate 62 g/ha, Postemergence, scale 0 to 10, 0 no effect, 10 complete control
[21] = Rate 125 g/ha, Postemergence, scale of 0 to 10 where 0 is no effect and 10 is complete control
[22] = Rate 250 g/ha, Postemergence, scale of 0 to 10 where 0 is no effect and 10 is complete control
[23] = Rate 500 g/ha, Postemergence, scale 0 to 10, 0 no effect, 10 complete control
[24] = Rate 62 g/ha, headed Pre-emergence (flood test species), scale 0 to 10 (0 no effect, 10 complete control)
[25] = Rate 125 g/ha, Pre-emergence, flood test species, scale 0 to 10 where 0 is no effect and 10 is complete control
[26] = Rate 250 g/ha, Pre-emergence, flood-test species, scale 0 to 10, 0 is no effect, 10 is complete control
[27] = Rate 500 g/ha, Pre-emergence, flood test species, scale 0 to 10 (0 no effect, 10 complete control)

CC(C)N(C(=O)n1oc(=O)n(C2CC2)c1=O)c1ccc(F)cc1F [Compound 299]
Cocklebur plant response rating [1, 17]: 0
Cocklebur plant response rating (0 to 10 scale) ([1]; Preemergence, Rate 125 g/ha): 0
Cocklebur plant response rating [1, 18]: 0
Cocklebur plant response rating [1, 19]: 0
Cocklebur plant response rating [1, 20]: 0
Cocklebur plant response rating [1, 21]: 2
Plant response rating, Cocklebur [1, 22]: 4
Cocklebur plant response rating [1, 23]: 5
Giant foxtail plant response rating [2, 17]: 9
Giant foxtail plant response rating (0 to 10 scale) ([2]; Preemergence, Rate 125 g/ha): 10
Giant foxtail plant response rating [2, 18]: 10
Giant foxtail plant response rating [2, 19]: 10
Giant foxtail plant response rating [2, 20]: 7
Giant foxtail plant response rating [2, 21]: 7
Plant response rating, Giant foxtail [2, 22]: 8
Corn plant response rating [3, 17]: 0
Corn plant response rating (0 to 10 scale) ([3]; Preemergence, Rate 125 g/ha): 0
Corn plant response rating [3, 18]: 8
Corn plant response rating [3, 19]: 8
Corn plant response rating [3, 20]: 0
Corn plant response rating [3, 21]: 0
Plant response rating, Corn [3, 22]: 3
Corn plant response rating [3, 23]: 4
Bedstraw plant response rating [4, 17]: 10
Bedstraw plant response rating (0 to 10 scale) ([4]; Preemergence, Rate 125 g/ha): 10
Bedstraw plant response rating [4, 18]: 10
Bedstraw plant response rating [4, 19]: 10
Bedstraw plant response rating [4, 20]: 2
Bedstraw plant response rating [4, 21]: 7
Ducksalad plant response rating [5, 24]: 0
Ducksalad plant response rating [5, 25]: 0
Ducksalad plant response rating [5, 26]: 0
Ducksalad plant response rating [5, 27]: 0
Rape plant response rating [6, 17]: 1
Rape plant response rating (0 to 10 scale) ([6]; Preemergence, Rate 125 g/ha): 8
Rape plant response rating [6, 18]: 10
Rape plant response rating [6, 19]: 10
Rape plant response rating [6, 20]: 1
Rape plant response rating [6, 21]: 3
Plant response rating, Rape [6, 22]: 7
Crabgrass plant response rating [7, 17]: 6
Crabgrass plant response rating (0 to 10 scale) ([7]; Preemergence, Rate 125 g/ha): 9
Crabgrass plant response rating [7, 18]: 9
Crabgrass plant response rating [7, 19]: 9
Crabgrass plant response rating [7, 20]: 0
Crabgrass plant response rating [7, 21]: 3
Plant response rating, Crabgrass [7, 22]: 4
Velvetleaf plant response rating [8, 17]: 6
Velvetleaf plant response rating (0 to 10 scale) ([8]; Preemergence, Rate 125 g/ha): 7
Velvetleaf plant response rating [8, 18]: 8
Velvetleaf plant response rating [8, 19]: 8
Velvetleaf plant response rating [8, 20]: 0
Velvetleaf plant response rating [8, 21]: 0
Plant response rating, Velvetleaf [8, 22]: 6
Wild oats plant response rating [9, 17]: 2
Wild oats plant response rating (0 to 10 scale) ([9]; Preemergence, Rate 125 g/ha): 7
Wild oats plant response rating [9, 18]: 8
Wild oats plant response rating [9, 19]: 8
Wild oats plant response rating [9, 20]: 0
Wild oats plant response rating [9, 21]: 0
Plant response rating, Wild oats [9, 22]: 3
Wheat plant response rating [10, 17]: 3
Wheat plant response rating (0 to 10 scale) ([10]; Preemergence, Rate 125 g/ha): 7
Wheat plant response rating [10, 18]: 8
Wheat plant response rating [10, 19]: 8
Wheat plant response rating [10, 20]: 0
Wheat plant response rating [10, 21]: 3
Plant response rating, Wheat [10, 22]: 6
B. signalgrass plant response rating [11, 17]: 6
B. signalgrass plant response rating (0 to 10 scale, 0 is no effect, 10 is complete control) ([11]; Preemergence, Rate 125 g/ha): 9
B. signalgrass plant response rating [11, 18]: 9
B. signalgrass plant response rating [11, 19]: 10
B. signalgrass plant response rating [11, 20]: 0
B. signalgrass plant response rating [11, 21]: 3
Plant response rating, B. signalgrass [11, 22]: 7
B. signalgrass plant response rating [11, 23]: 8
Soybean plant response rating [12, 17]: 0
Soybean plant response rating (0 to 10 scale) ([12]; Preemergence, Rate 125 g/ha): 0
Soybean plant response rating [12, 18]: 6
Soybean plant response rating [12, 19]: 7
Soybean plant response rating [12, 21]: 6
Plant response rating, Soybean [12, 22]: 6
Barnyardgrass plant response rating [13, 24]: 0
Barnyardgrass plant response rating [13, 25]: 2
Barnyardgrass plant response rating [13, 26]: 6
Barnyardgrass plant response rating [13, 27]: 9
Morningglory plant response rating [14, 17]: 0
Morningglory plant response rating (0 to 10 scale) ([14]; Preemergence, Rate 125 g/ha): 2
Morningglory plant response rating [14, 18]: 6
Morningglory plant response rating [14, 19]: 7
Morningglory plant response rating [14, 20]: 3
Morningglory plant response rating [14, 21]: 5
Plant response rating, Morningglory [14, 22]: 6
S. Flatsedge plant response rating [15, 24]: 0
S. Flatsedge plant response rating [15, 25]: 0
S. Flatsedge plant response rating [15, 26]: 0
S. Flatsedge plant response rating [15, 27]: 0
Blackgrass plant response rating [16, 17]: 9
Blackgrass plant response rating (0 to 10 scale) ([16]; Preemergence, Rate 125 g/ha): 10
Blackgrass plant response rating [16, 18]: 10
Blackgrass plant response rating [16, 19]: 10
Blackgrass plant response rating [16, 20]: 7
Blackgrass plant response rating [16, 21]: 8
Plant response rating, Blackgrass [16, 22]: 8
Blackgrass plant response rating [16, 23]: 9
